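Exposure lasted 48 hours, with cells grown in 96-well plates and compounds tested at five concentrations. The concentration for 50% growth inhibition is given as GI50.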 Activity calls are given as the source filed them. No stated cut-off is given here; in the data, active = GI50 up to about 1.1 µM and inactive = higher.
Assays:
Experiment in all cases: inhibition of tumour cell growth, NCI panel, 48 h
[1] = tested on: SK-MEL-28
[2] = tested on: U-251
[3] = tested on: OVCAR-5
[4] = tested on: MDA-N
[5] = tested on: KM12
[6] = tested on: CCRF-CEM
[7] = tested on: ACHN
[8] = tested on: HOP-62
[9] = tested on: LOX IMVI
[10] = tested on: TK-10
[11] = tested on: NCI-H522
[12] = tested on: NCI-H226
[13] = tested on: 786-0
[14] = tested on: SK-MEL-5
[15] = tested on: HCT-116
[16] = tested on: SF-268
[17] = tested on: RPMI-8226
[18] = tested on: NCI/ADR-RES
[19] = tested on: SF-539
[20] = tested on: T47D

| SMILES | GI50 [1] | GI50 [2] | GI50 [3] | GI50 [4] | GI50 [5] | GI50 [6] | GI50 [7] | GI50 [8] | GI50 [9] | GI50 [10] | GI50 [11] | GI50 [12] | GI50 [13] | GI50 [14] | GI50 [15] | GI50 [16] | GI50 [17] | GI50 [18] | GI50 [19] | GI50 [20] |
| --- | --- | --- | --- | --- | --- | --- | --- | --- | --- | --- | --- | --- | --- | --- | --- | --- | --- | --- | --- | --- |
| CCCSc1ccc2[nH]c(N3C(=O)/C(=C/c4ccc(SC)cc4)N=C3c3ccccc3)cc2c1 | 34.3 µM (inactive) | 27.1 µM (inactive) | > 50 µM (inactive) | 6.56 µM (inactive) | 11 µM (inactive) | 13.5 µM (inactive) | > 50 µM (inactive) | 42.6 µM (inactive) | 35.7 µM (inactive) | 29 µM (inactive) | 16.1 µM (inactive) | > 50 µM (inactive) | 26.2 µM (inactive) | 10.7 µM (inactive) | 19.9 µM (inactive) | 29.8 µM (inactive) | 0.242 µM (active) | > 33 µM (inactive) | 14 µM (inactive) | 32.1 µM (inactive) |
| CC(O)CN1c2ccccc2Sc2ccc(Cl)cc21 (stereo not given) | > 10 µM (inactive) | > 10 µM (inactive) | > 10 µM (inactive) | > 10 µM (inactive) | > 10 µM (inactive) | > 10 µM (inactive) | > 10 µM (inactive) | > 10 µM (inactive) | > 10 µM (inactive) | > 10 µM (inactive) | > 10 µM (inactive) | > 10 µM (inactive) | > 10 µM (inactive) | > 10 µM (inactive) | > 10 µM (inactive) | > 10 µM (inactive) | > 10 µM (inactive) | > 10 µM (inactive) | > 10 µM (inactive) | > 10 µM (inactive) |
| C[N+](C)([O-])CCC=C1c2ccccc2CCc2ccccc21 | 33.5 µM (inactive) | 18.2 µM (inactive) | 33.3 µM (inactive) | 19.5 µM (inactive) | 18.1 µM (inactive) | 18.6 µM (inactive) | 35 µM (inactive) | 15.6 µM (inactive) | 1.14 µM (inactive) | 53.2 µM (inactive) | 16.6 µM (inactive) | 31.4 µM (inactive) | 4.79 µM (inactive) | 17.7 µM (inactive) | 29.6 µM (inactive) | 21.5 µM (inactive) | 11.5 µM (inactive) | 22 µM (inactive) | 36.9 µM (inactive) | 22.2 µM (inactive) |
